As usually defined, the IC50 is the concentration at which inhibition is half-maximal.

The assay concerns the target hT2R8 (Homo sapiens (Human), UniProt Q9NYW2). The experiment in a line: hT2R8 antagonist high-throughput FLIPR assay, stable cell line with G16g44, agonist andrographolide. Format: cell-based. In short, it runs like this:
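Antagonist screen: compounds co-applied with agonist andrographolide at 200 μM, a dose giving 70–80% of maximal hT2R8 activation. Fluorescence measured by FLIPR in a stable HEK293 line expressing both hT2R8 and the promiscuous G16g44 protein.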

The mark [1] stands for this setting: read-out: IC50 on hT2R8 bitter receptor.
Where [2] appears, read: table after Example 10-97, read-out: hT2R8 IC50.
[3] abbreviates: unit uM, read-out: IC50 on hT2R08 bitter receptor.

Read-outs that look alike come from different tables or passages of the source.

Sequence of hT2R8 (Q9NYW2 whole entry): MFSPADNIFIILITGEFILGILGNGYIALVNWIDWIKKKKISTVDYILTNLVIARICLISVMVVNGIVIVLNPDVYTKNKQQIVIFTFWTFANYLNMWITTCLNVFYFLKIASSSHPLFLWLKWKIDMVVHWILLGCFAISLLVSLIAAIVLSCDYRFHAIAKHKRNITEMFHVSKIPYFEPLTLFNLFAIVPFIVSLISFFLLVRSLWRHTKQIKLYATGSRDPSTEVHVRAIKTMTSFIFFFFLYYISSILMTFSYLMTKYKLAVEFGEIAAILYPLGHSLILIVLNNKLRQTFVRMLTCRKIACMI

Regarding `COc1cccc(C(=O)Nc2cn(Cc3c(C)noc3C)nc2C)c1` [Example 4-115, N-(1-((3,5-dimethylisoxazol-4-yl)methyl)-3-methyl-1H-pyrazol-4-yl)-3-methoxybenzamide], the IC50 (Table A, read-out: hT2R8 IC50) amounted to 9.25 µM.
For `Cc1noc(C)c1Cn1cc(C(=O)NCc2cccs2)sc1=O` [Example 4-116, 3-((3,5-dimethylisoxazol-4-yl)methyl)-2-oxo-N-(thiophen-2-ylmethyl)-2,3-dihydrothiazole-5-carboxamide], where the note is “Table A, read-out: hT2R8 IC50”, the half-maximal inhibitory concentration (IC50) was determined as 2.28 µM.
In the case of `Cc1noc(C)c1Cn1cc(NCc2ccccc2C#N)cn1` [Example 9-2, 2-((1-((3,5-dimethylisoxazol-4-yl)methyl)-1H-pyrazol-4-ylamino)methyl)benzonitrile], under setting [1], the IC50 is over 30 µM.
With `Cc1noc(C)c1Cn1cc(N2Cc3ccccc3C2=O)cn1` [Example 9-3, 2-(1-((3,5-dimethylisoxazol-4-yl)methyl)-1H-pyrazol-4-yl) isoindolin-1-One], the IC50 under setting [1] came to 11 µM.
For the compound `Cc1noc(C)c1Cn1cc(-n2c(=O)[nH]c3ccccc3c2=O)cn1` [Example 9-4, 3-(1-((3,5-dimethylisoxazol-4-yl)methyl)-1H-pyrazol-4-yl)quinazoline-2,4(1H,3H)-dione], the IC50 under setting [1] came out at 1.5 µM.
Consider `Cc1noc(C)c1Cn1cc(N2CCCN(Cc3ccccc3)C2=O)cn1` [Example 9-5], for which the IC50 under setting [2] came to 3.43 µM.
Turning to `Cc1noc(C)c1Cn1cc(N2CNCN(Cc3ccccc3)C2=O)cn1` [Example 9-6, 1-benzyl-3-(1-((3,5-dimethylisoxazol-4-yl)methyl)-1H-pyrazol-4-yl)-1,3,5-triazinan-2-one], the IC50 under setting [1] came to 5.84 µM and the IC50 under setting [2] worked out at 6.03 µM.
Taken in the same sequence, the figures for `Cc1noc(C)c1Cn1cc(N2CN(Cc3ccccc3)CN(CCc3ccccc3)C2=O)cn1` [Example 9-7, 5-benzyl-1-(1-((3,5-dimethylisoxazol-4-yl)methyl)-1H-pyrazol-4-yl)-3-phenethyl-1,3,5-triazinan-2-one] were 2.64 µM and 6.58 µM.
Taken in the same sequence, the figures for `Cc1noc(C)c1Cn1cc(-n2c(=O)[nH]c(=O)n(CCc3ccccc3)c2=O)cn1` [Example 9-8, 1-(1-((3,5-dimethylisoxazol-4-yl)methyl)-1H-pyrazol-4-yl)-3-phenethyl-1,3,5-triazinane-2,4,6-trione] were 3.03 µM and 6.15 µM.
`Cc1noc(C)c1Cn1cc(-n2c(=O)[nH]c(=O)n(Cc3ccccc3)c2=O)cn1` [Example 9-9, 1-benzyl-3-(1-((3,5-dimethylisoxazol-4-yl)methyl)-1H-pyrazol-4-yl)-1,3,5-triazinane-2,4,6-trione]: the IC50 was found to be 1.14 µM under setting [1] and 1.56 µM under setting [2].
In the case of `Cc1noc(C)c1Cn1cc(N2C(=O)CNC2=O)cn1` [Example 10-1, 3-(1-((3,5-dimethylisoxazol-4-yl)methyl)-1H-pyrazol-4-yl)imidazolidine-2,4-dione], the IC50 reads like this: under setting [1], 1.7 µM; under setting [2], 1.7 µM.
Consider `Cc1noc(C)c1Cn1cc(N2C(=O)N[C@@H](Cc3ccccc3)C2=O)cn1` [Example 10-3, (S)-5-benzyl-3-(1-((3,5-dimethylisoxazol-4-yl)methyl)-1H-pyrazol-4-yl)imidazolidine-2,4-dione], for which, under setting [2], the half-inhibitory concentration (IC50) came out at 0.113 µM.
As for `Cc1noc(C)c1Cn1cc(N2C(=O)N[C@H](Cc3ccccc3)C2=O)cn1` [Example 10-4, (R)-5-benzyl-3-(1-((3,5-dimethylisoxazol-4-yl)methyl)-1H-pyrazol-4-yl)imidazolidine-2,4-dione], the half-maximal inhibitory concentration (IC50) is 0.11 µM under setting [1] and 0.112 µM under setting [2].
Taken in the same sequence, the figures for `COc1cccc(CN2CC(=O)N(c3cnn(Cc4c(C)noc4C)c3)C2=O)c1` [Example 10-6, 3-(1-((3,5-dimethylisoxazol-4-yl)methyl)-1H-pyrazol-4-yl)-1-(3-methoxybenzyl)imidazolidine-2,4-dione] were 0.07 µM and 0.073 µM.
For `COC(=O)c1cccc(CN2CC(=O)N(c3cnn(Cc4c(C)noc4C)c3)C2=O)c1` [Example 10-7, methyl 3-((3-(1-((3,5-dimethylisoxazol-4-yl)methyl)-1H-pyrazol-4-yl)-2,4-dioxoimidazolidin-1-yl)methyl)benzoate], the IC50 is, setting by setting: under setting [1], 0.09 µM; under setting [2], 0.102 µM.
With `Cc1noc(C)c1Cn1cc(N2C(=O)CN(Cc3cccc(C(=O)O)c3)C2=O)cn1` [Example 10-8, 3-((3-(1-((3,5-dimethylisoxazol-4-yl)methyl)-1H-pyrazol-4-yl)-2,4-dioxoimidazolidin-1-yl)methyl)benzoic acid], the IC50 reads like this: under setting [1], 1.8 µM; under setting [2], 1.8 µM.
Regarding `CNC(=O)c1cccc(CN2CC(=O)N(c3cnn(Cc4c(C)noc4C)c3)C2=O)c1` [Example 10-9, 3-((3-(1-((3,5-dimethylisoxazol-4-yl)methyl)-1H-pyrazol-4-yl)-2,4-dioxoimidazolidin-1-yl)methyl)-N-methylbenzamide], the IC50 by setting is: under setting [1], 0.14 µM; under setting [2], 0.141 µM.
`Cc1noc(C)c1Cn1cc(N2C(=O)CN(Cc3ccccc3O)C2=O)cn1` [Example 10-11, 3-(1-((3,5-dimethylisoxazol-4-yl)methyl)-1H-pyrazol-4-yl)-1-(2-hydroxybenzyl)imidazolidine-2,4-dione]: the IC50 came out at 0.069 µM under setting [2] and 0.07 µM under setting [3].
As for `Cc1noc(C)c1Cn1cc(N2C(=O)CN(Cc3ccc(O)cc3)C2=O)cn1` [Example 10-12, 3-(1-((3,5-dimethylisoxazol-4-yl)methyl)-1H-pyrazol-4-yl)-1-(4-hydroxybenzyl)imidazolidine-2,4-dione], the IC50 under setting [2] came to 0.043 µM and the IC50 under setting [3] came out at 0.06 µM.
For `COc1ccc(CN2CC(=O)N(c3cnn(Cc4c(C)noc4C)c3)C2=O)cc1O` [Example 10-13, 3-(1-((3,5-dimethylisoxazol-4-yl)methyl)-1H-pyrazol-4-yl)-1-(3-hydroxy-4-methoxybenzyl)imidazolidine-2,4-dione], in that order: 0.087 µM and 0.1 µM.
In the case of `COCCOc1cccc(CN2CC(=O)N(c3cnn(Cc4c(C)noc4C)c3)C2=O)c1` [Example 10-14, 3-(1-((3,5-dimethylisoxazol-4-yl)methyl)-1H-pyrazol-4-yl)-1-(3-(2-methoxyethoxy)benzyl)imidazolidine-2,4-dione], the IC50 came out at 0.071 µM under setting [2] and 0.07 µM under setting [3].
In the case of `CSc1ccccc1CN1CC(=O)N(c2cnn(Cc3c(C)noc3C)c2)C1=O` [Example 10-15, 3-(1-((3,5-dimethylisoxazol-4-yl)methyl)-1H-pyrazol-4-yl)-1-(2-(methylthio)benzyl)imidazolidine-2,4-dione], the IC50 is 0.016 µM under setting [2] and 0.03 µM under setting [3].
With `COCCOc1ccccc1CN1CC(=O)N(c2cnn(Cc3c(C)noc3C)c2)C1=O` [Example 10-16, 3-(1-((3,5-dimethylisoxazol-4-yl)methyl)-1H-pyrazol-4-yl)-1-(2-(2-methoxyethoxy)benzyl)imidazolidine-2,4-dione], the IC50 by setting is: under setting [2], 0.131 µM; under setting [3], 0.1 µM.
As to `Cc1noc(C)c1Cn1cc(N2C(=O)CN(Cc3ccccc3[S+](C)[O-])C2=O)cn1` (stereo not drawn) [Example 10-17, 33-(1-((3,5-dimethylisoxazol-4-yl)methyl)-1H-pyrazol-4-yl)-1-(2-(methylsulfinyl)benzyl)imidazolidine-2,4-dione], the IC50 under setting [2] was found to be 0.412 µM and the IC50 under setting [3] was found to be 0.4 µM.
Taken in the same sequence, the figures for `COc1ccccc1CN1CC(=O)N(c2cnn(Cc3c(C)noc3C)c2)C1=O` [Example 10-18, 3-(1-((3,5-dimethylisoxazol-4-yl)methyl)-1H-pyrazol-4-yl)-1-(2-methoxybenzyl)imidazolidine-2,4-dione] were 0.06 µM and 0.06 µM.
With `Cc1noc(C)c1Cn1cc(N2C(=O)CN(Cc3ccccc3C#N)C2=O)cn1` [Example 10-19, 2-((3-(1-((3,5-dimethylisoxazol-4-yl)methyl)-1H-pyrazol-4-yl)-2,4-dioxoimidazolidin-1-yl)methyl)benzonitrile], the IC50 by setting is: under setting [1], 0.5 µM; under setting [2], 0.55 µM.
For `Cc1ccccc1CN1CC(=O)N(c2cnn(Cc3c(C)noc3C)c2)C1=O` [Example 10-20, 3-(1-((3,5-dimethylisoxazol-4-yl)methyl)-1H-pyrazol-4-yl)-1-(2-methylbenzyl)imidazolidine-2,4-dione], the IC50 under setting [2] amounted to 0.133 µM and the half-inhibitory concentration (IC50) under setting [3] turned out to be 0.1 µM.
For `Cc1noc(C)c1Cn1cc(N2C(=O)CN(Cc3ccccc3F)C2=O)cn1` [Example 10-21, 3-(1-((3,5-dimethylisoxazol-4-yl)methyl)-1H-pyrazol-4-yl)-1-(2-fluorobenzyl)imidazolidine-2,4-dione], in that order: 0.09 µM and 0.08 µM.
Turning to `Cc1noc(C)c1Cn1cc(N2C(=O)CN(Cc3ccccc3C(F)(F)F)C2=O)cn1` [Example 10-22, 3-(1-((3,5-dimethylisoxazol-4-yl)methyl)-1H-pyrazol-4-yl)-1-(2-(trifluoromethyl)benzyl)imidazolidine-2,4-dione], the half-maximal inhibitory concentration (IC50) by setting is: under setting [2], 0.221 µM; under setting [3], 0.2 µM.
Take `Cc1noc(C)c1Cn1cc(N2C(=O)CN(Cc3ccccc3[N+](=O)[O-])C2=O)cn1` [Example 10-23, 3-(1-((3,5-dimethylisoxazol-4-yl)methyl)-1H-pyrazol-4-yl)-1-(2-nitrobenzyl)imidazolidine-2,4-dione]: the IC50 under setting [2] was 0.081 µM and the IC50 under setting [3] worked out at 0.07 µM.
For `Cc1noc(C)c1Cn1cc(N2C(=O)CN(Cc3cccc(C=O)c3)C2=O)cn1` [Example 10-24, 3-((3-(1-((3,5-dimethylisoxazol-4-yl)methyl)-1H-pyrazol-4-yl)-2,4-dioxoimidazolidin-1-yl)methyl)benzaldehyde], the IC50 came to 0.201 µM under setting [2] and 0.2 µM under setting [3].
Turning to `Cc1noc(C)c1Cn1cc(N2C(=O)CN(Cc3cccc(C#N)c3)C2=O)cn1` [Example 10-25, 3-((3-(1-((3,5-dimethylisoxazol-4-yl)methyl)-1H-pyrazol-4-yl)-2,4-dioxoimidazolidin-1-yl)methyl)benzonitrile], the IC50 by setting is: under setting [2], 1 µM; under setting [3], 1 µM.

For the origin of these results see patent US9247759B2, “Identification of human T2R receptors that respond to bitter compounds that elicit the bitter taste in compositions, and the use thereof in assays to identify compounds that inhibit (block) bitter taste in compositions and use thereof” (SENOMYX, INC., priority 2007, dated 2016).
